These results are taken from US20240109885A1, “2,3-DIHYDRO-1H-PYRROLO[3,2-B]PYRIDINE DERIVATIVE, PREPARATION METHOD THEREFOR, AND APPLICATION THEREOF” (Abbisko Therapeutics Co., Ltd, priority 2020, published 2024).

Holding throughout (format): cell-based
In assay [1] the target is Ba/F3 EGFR-V769_D770insASV (Homo sapiens, UniProt P00533, DUP767-769, cells depend on it). Description: Cell proliferation assay (CellTiter-Glo), Ba/F3 EGFR-V769_D770insASV cells. The note with it: 72 hrs, CTG assay, * = average of multiple measurements, read-out: Ba/F3 EGFR-V769_D770insASV (nM), IC50 of cell proliferation. In outline:
(§1)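 Cells seeded overnight, then treated in triplicate with 9 concentrations (3.16-fold dilutions; 0.1% DMSO final) for 72 h at 37 °C, 5% CO2. Viability by CellTiter-Glo luminescence, normalised to cell and medium controls; IC50 (nM) from nonlinear sigmoidal fit.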

In assay [2] the test system is A431 (EGFR-WT). Description: Cell proliferation assay (CellTiter-Glo), A431 cells. Conditions: Homo sapiens, A-431, 72 hrs, CTG assay, * = average of multiple measurements. In outline:
as §1
In general terms: Cellular ATP, detected with luciferase, serves as a proxy for viable cell number.

Assay [3] has as its target Ba/F3 EGFR-D770-N771ins_SVD (Homo sapiens, UniProt P00533, DUP768-770, cells depend on it). Description: Cell proliferation assay (CellTiter-Glo), Ba/F3 EGFR-D770-N771ins_SVD cells. The note with it: 72 hrs, CTG assay, * = average of multiple measurements, read-out: Ba/F3 EGFR-D770-N771ins_SVD (nM), IC50 of cell proliferation. In outline: as §1

Sequence of Ba/F3 EGFR-V769_D770insASV (P00533 with tags, fused parts or gaps DUP767-769): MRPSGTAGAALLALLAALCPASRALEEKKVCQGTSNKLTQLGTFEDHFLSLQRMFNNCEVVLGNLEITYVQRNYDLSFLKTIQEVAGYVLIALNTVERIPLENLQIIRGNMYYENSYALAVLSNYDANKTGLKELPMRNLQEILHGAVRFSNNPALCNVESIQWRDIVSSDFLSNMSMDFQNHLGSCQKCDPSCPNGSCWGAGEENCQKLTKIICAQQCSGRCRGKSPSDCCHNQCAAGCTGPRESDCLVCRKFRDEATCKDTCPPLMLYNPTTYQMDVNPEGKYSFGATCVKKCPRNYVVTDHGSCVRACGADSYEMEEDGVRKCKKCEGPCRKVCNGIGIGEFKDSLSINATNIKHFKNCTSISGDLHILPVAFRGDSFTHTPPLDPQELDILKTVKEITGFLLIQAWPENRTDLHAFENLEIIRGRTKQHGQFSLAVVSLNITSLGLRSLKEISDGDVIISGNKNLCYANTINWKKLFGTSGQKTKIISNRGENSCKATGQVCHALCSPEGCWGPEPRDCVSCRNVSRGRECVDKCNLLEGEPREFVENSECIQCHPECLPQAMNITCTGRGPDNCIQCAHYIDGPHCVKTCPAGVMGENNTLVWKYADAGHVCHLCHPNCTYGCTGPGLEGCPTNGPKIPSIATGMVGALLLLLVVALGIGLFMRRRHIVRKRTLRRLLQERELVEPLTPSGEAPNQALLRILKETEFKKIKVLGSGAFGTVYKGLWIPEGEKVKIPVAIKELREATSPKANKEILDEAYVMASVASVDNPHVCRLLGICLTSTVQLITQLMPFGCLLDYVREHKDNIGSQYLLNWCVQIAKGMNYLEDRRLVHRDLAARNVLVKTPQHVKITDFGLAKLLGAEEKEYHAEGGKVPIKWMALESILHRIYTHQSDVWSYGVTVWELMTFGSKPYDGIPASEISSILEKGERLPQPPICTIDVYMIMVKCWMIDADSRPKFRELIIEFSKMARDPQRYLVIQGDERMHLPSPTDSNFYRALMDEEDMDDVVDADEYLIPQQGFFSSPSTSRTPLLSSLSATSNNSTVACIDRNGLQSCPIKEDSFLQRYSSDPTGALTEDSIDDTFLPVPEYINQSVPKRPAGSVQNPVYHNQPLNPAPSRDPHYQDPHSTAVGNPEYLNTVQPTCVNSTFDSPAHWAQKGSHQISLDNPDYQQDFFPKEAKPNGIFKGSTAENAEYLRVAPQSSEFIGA
Sequence of Ba/F3 EGFR-D770-N771ins_SVD (P00533 with tags, fused parts or gaps DUP768-770): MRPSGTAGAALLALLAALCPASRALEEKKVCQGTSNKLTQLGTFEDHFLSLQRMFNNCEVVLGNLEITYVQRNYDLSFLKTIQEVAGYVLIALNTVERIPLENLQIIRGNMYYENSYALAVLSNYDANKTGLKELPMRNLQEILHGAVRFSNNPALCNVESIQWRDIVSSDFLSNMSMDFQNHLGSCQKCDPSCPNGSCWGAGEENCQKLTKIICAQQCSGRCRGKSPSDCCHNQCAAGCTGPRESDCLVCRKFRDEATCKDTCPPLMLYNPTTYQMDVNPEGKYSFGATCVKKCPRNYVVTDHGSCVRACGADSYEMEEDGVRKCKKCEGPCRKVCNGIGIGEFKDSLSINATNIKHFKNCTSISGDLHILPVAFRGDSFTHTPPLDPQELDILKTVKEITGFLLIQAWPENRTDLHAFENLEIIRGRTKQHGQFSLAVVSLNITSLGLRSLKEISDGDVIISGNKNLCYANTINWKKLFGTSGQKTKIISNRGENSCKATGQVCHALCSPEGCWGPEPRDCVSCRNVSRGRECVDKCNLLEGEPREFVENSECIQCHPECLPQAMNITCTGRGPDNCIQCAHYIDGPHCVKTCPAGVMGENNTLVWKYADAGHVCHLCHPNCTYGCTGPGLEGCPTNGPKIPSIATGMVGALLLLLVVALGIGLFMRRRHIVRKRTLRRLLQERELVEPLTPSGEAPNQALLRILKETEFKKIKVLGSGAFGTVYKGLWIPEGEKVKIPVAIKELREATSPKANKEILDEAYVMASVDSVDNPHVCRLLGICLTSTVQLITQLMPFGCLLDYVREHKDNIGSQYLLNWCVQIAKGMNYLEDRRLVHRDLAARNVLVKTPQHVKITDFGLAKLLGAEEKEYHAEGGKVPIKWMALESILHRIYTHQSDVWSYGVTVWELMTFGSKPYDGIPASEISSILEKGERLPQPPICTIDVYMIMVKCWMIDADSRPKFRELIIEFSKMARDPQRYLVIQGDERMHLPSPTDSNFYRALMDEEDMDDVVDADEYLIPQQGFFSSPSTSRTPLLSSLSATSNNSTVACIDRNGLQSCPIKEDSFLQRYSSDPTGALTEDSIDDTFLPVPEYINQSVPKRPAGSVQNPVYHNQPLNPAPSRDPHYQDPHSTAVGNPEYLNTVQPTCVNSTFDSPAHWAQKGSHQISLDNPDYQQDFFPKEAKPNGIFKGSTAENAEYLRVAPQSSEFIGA

By IC50 is commonly meant the concentration that inhibits the measured activity by half. Low values mean higher potency, high ones lower potency. Consider `C=CC(=O)Nc1cc(Nc2nccc(N3CC4(CCC4)c4ncccc43)n2)c(OC(F)F)cc1N(C)CCN(C)C` [Example 62, N-(4-(difluoromethoxy)-2-((2-(dimethylamino)ethyl)(methyl)amino)-5-((4-(spiro[cyclobutane-1,3′-pyrrolo[3,2-b]pyridin]-1′(2′H)-yl)pyrimidin-2-yl)amino)phenyl) acrylamide], for which the GI50 worked out at 36.3 nM in assay [1] and 21.7 nM in assay [3]. Also, in assay [2], half-maximal inhibition (IC50) required 582 nM.

Take `C=CC(=O)Nc1cc(Nc2nccc(N3CC4(CCC4)c4ncccc43)n2)c(OC)cc1N(C)CCN(C)C` [Example 63, N-(2-((2-(dimethylamino)ethyl) (methyl)amino)-4-methoxy-5-((4-(spiro[cyclobutane-1,3′-pyrrolo [3,2-b]pyridin]-1′(2′H)-yl)pyrimidin-2-yl)amino)phenyl)acrylamide]: the values for the GI50 in assay [1] and in assay [3] were 116 nM and 39.6 nM, respectively. Also, 532 nM corresponded to half-maximal inhibition in assay [2] (IC50).

Regarding `C=CC(=O)Nc1cc(Nc2nccc(N3CC4(CCC4)c4nc(C)ccc43)n2)c(OC(F)F)cc1N(C)CCN(C)C` [Example 64, N-(4-(difluoromethoxy)-2-((2-(dimethylamino)ethyl)(methyl)amino)-5-((4-(5′-methylspiro[cyclo-butane-1,3′-pyrrolo[3,2-b]pyridin]-1′(2′H)-yl)pyrimidin-2-yl)amino)phenyl)acrylamide], the GI50 in assay [1] was found to be 31.9 nM; in assay [3], 17.1 nM. The compound further returned an IC50 in assay [2] of 494 nM.

`C#Cc1ccc2c(n1)C(C)(C)CN2c1ccnc(Nc2cc(NC(=O)C=C)c(N(C)CCN(C)C)cc2OC(F)F)n1` [Example 68, N-(4-(difluoromethoxy)-2-((2-(dimethylamino)ethyl)(methyl)ami-no)-5-((4-(5-ethynyl-3,3-dimeth-yl-2,3-dihydro-1H-pyrrolo[3,2-b]pyridin-1-yl)pyrimidin-2-yl)amino)phenyl)acrylamide]: the GI50 amounted to 17.1 nM in assay [1] and 6.5 nM in assay [3]. This compound came in with an IC50 in assay [2] of 673 nM.

Regarding `C=CC(=O)Nc1cc(Nc2nccc(N3CC(C)(C)c4nc(C5CC5)ccc43)n2)c(OC)nc1N(C)CCN(C)C` [Example 69, N-(5-((4-(5-cyclopropyl-3,3-dimethyl-2,3-dihydro-1H-pyrrolo [3,2-b]pyridin-1-yl)pyrimidin-2-yl)amino)-2-((2-(dimethylamino)ethyl) (methyl)amino)-6-methoxypyridin-3-yl)acrylamide], the results for the GI50 in assay [1] and in assay [3] were 53.7 nM and 24.8 nM, respectively. Also, in assay [2], the IC50 was determined as 317 nM.
